Assay type in all cases: biochemical
Assay [1] addresses T1, Coprinus cinereus laccase (Coprinopsis cinerea, UniProt Q9Y780).
T1 sequence (Q9Y780 19-539): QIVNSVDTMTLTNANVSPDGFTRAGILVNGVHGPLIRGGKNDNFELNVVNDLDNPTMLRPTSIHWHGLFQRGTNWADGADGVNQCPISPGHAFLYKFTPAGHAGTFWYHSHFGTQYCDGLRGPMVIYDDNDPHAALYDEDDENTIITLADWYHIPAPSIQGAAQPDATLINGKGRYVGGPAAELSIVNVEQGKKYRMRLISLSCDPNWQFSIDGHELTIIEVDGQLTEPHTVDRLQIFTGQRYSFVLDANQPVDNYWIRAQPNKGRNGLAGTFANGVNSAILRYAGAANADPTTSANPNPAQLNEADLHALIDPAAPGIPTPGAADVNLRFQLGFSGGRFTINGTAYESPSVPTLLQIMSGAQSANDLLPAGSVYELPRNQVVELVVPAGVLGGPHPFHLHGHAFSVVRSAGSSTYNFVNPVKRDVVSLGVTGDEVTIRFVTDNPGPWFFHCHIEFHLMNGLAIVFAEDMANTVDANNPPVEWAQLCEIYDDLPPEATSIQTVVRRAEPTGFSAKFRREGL
As to the kind of experiment: Bleaching of gradually added Acid Blue 45 with Coprinus cinereus laccase with and without enhancing agent. Conditions: phosphate/borate buffer pH 10; 35° C.; laccase 10 mg/l; acetosyringone 10 μM. The procedure: To simulate such a process, however, a magnetically stirred beaker was used as the reaction vessel and dye was added gradually from a stock solution (using a Metrohm 725 dosimat). The solution was monitored spectrophotometrically using a Zeiss multichannel spectrometer (MCS) equipped with a fibre-optics immersion probe.
Stock solutions of acetosyringone was prepared in a suitable water/ethanol mixture. Stock solutions of the anthraquinone dye Acid Blue 45 were made with water.
The laccase was recovered from a 10-liter fermentation of Coprinus cinereus (IFO 30116) as described in Example 4.
The following conditions were used in the experiment:
Medium and pH: […]/50 mM phosphate/borate buffer at pH 10
Acetosyringone (when applicable): 10 μM
Dye addition program: linear addition at a rate of ca 0.34 bs/40 min, referring to the absorbance of Acid Blue 45 at its maximum absorbance wavelength (590 nm for Acid Blue 45).
The following symbols are used: (I): Only dye addition; (II): Dye addition in the presence of Laccase; (III): Dye addition in the presence of Laccase+acetosyringone.

In assay [2] the target is T2, Coprinus cinereus peroxidase (CiP) (Coprinopsis cinerea, UniProt P28314).
T2 construct: made in house
T2 sequence (P28314 21-363): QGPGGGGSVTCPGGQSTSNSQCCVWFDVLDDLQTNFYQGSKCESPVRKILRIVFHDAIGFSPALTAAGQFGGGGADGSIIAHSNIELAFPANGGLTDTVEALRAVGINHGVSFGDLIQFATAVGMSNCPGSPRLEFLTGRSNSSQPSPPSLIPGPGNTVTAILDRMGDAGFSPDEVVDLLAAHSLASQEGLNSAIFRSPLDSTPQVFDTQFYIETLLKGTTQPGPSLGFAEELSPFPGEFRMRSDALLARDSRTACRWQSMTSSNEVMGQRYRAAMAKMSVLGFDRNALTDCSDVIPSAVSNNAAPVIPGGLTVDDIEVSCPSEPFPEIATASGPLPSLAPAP
As to the kind of experiment: Initial bleaching of Direct Blue 1 with Coprinus cinereus peroxidase and enhancers. Conditions: 5 μM enhancer, 20 μM H2O2, 30° C. The procedure: A Coprinus cinereus peroxidase (CiP), obtained as described in WO 9412621 was used.
Dilutions of CiP were made in a solution of 0.15 gram/l of Triton X-405.
The bleaching rate of Direct Blue 1 (DB1) by purified CiP was determined using the following conditions: […]
Reagents were mixed in a thermostated cuvette at 30° C. and the bleaching was started by addition of hydrogen peroxide. The bleaching was detected spectrophotometrically at 610 nm, which is the wavelength of the absorption peak of DB1. Bleaching was followed for 1 minute, and the initial reduction in absorbance, --ΔmAbs/minute, was determined.

Assay [3] deals with T3, Trametes villosa laccase (Trametes villosa, UniProt Q99044).
T3 construct: made in house; host or cells: Trametes villosa CBS 678.70 (native producer), purified from culture broth
T3 sequence (Q99044 22-520): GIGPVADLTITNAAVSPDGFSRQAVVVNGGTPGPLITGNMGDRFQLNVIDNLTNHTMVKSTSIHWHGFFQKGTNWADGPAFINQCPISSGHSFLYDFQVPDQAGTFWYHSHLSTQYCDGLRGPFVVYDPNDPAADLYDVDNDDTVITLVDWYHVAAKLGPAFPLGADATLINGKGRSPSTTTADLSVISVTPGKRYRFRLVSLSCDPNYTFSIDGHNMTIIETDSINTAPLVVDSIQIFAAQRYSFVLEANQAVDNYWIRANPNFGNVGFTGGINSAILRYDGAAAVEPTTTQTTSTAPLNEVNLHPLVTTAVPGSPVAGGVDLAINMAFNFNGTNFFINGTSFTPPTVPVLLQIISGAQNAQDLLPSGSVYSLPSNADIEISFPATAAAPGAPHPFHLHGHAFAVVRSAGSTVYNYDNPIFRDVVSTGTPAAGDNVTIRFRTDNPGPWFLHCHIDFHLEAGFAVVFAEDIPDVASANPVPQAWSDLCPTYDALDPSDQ
As to the kind of experiment: Bleaching of Direct Blue 1 with Trametes villosa laccase with and without enhancing agents. Conditions: 10 μM enhancer, 30° C. The procedure:
Laccase obtained from Trametes villosa: 800 ml culture broth of Trametes villosa, CBS 678.70, was filtered with filter aid to give a clear filtrate, which was concentrated and washed by ultrafiltration on a membrane with a cut-off of 6-8 kDa. One ml samples of concentrated preparation was applied onto a Q-Sepharose HP column (Pharmacia, Sweden) equilibrated with 0.1 M fosfate pH 7, and the laccase was eluted with a flat NaCl gradient around 0.25 M. Fractions with laccase activity from 10 runs were pooled and concentrated by ultrafiltration to an activity of 500 LACU/ml.
The following conditions were used: […]
Reagents were mixed in a 1 cm thermostated cuvette at 30° C. and the bleaching was started by addition of enzyme.
The bleaching was detected spectrophotometrically at 610 nm, which is the absorption peak of DB1. After 5 sec. bleaching was followed for 4 minutes.
Bleaching of Direct Blue 1 with Trametes villosa laccase, obtained as described above, at pH 5.5 (1.6 mg/l) and pH 7.0 (16 mg/l): […]

For assay [4], the target named is T1, Coprinus cinereus laccase. As to the kind of experiment: Bleaching of Direct Blue 1 using Coprinus cinereus laccase with/without enhancing agents at pH 5.5-8.5. Conditions: C. cinereus laccase 1 mg/l, 10 μM enhancing agent, 30° C. The protocol:
Bleaching of the dye Direct Blue 1 at various pH values was conducted using Coprinus cinereus laccase and one of the following enhancing agents:
The laccase was obtained in the following way: Coprinus cinereus (IFO 30116--freely available to the public from Institute of Fermentation, Osaka (IFO) under the indicated deposit number) was inoculated from a PDA agar slant (PDA: 39 g/l potato dextrose agar) into a 100 ml shake flask containing medium A (Medium A is described in Example 3). The culture was cultivated for 6 days at 26° C. and 100 rpm. A 10-liter fermentor containing medium A was inoculated with the 100 ml culture broth. The fermentation ran for 6 days at 26° C. and 100 rpm. The culture broth was filtrated and concentrated by ultrafiltration. Further purification was carried out using hydrophobic interaction chromatography followed by anionic exchange chromatography. This process resultated in a preparation with a laccase activity of 3.6 LACU/ml. The estimated purity was >80% on a protein basis.
The bleaching rate of DB1 was determined using the owing conditions: […]
Reagents were mixed in a 1 ml thermostated cuvette at 30° C. and the bleaching was started by addition of the laccase.
The bleaching was followed spectrophotometrically at 610 nm, which is the wavelength of the absorption peak of DB1 with readings every 5 sec. for a period of 5 minutes. The initial bleaching rate was determined from the first linear part of the absorbance curve.

Regarding `COc1cc(C(C)=O)cc(OC)c1O` [acetosyringone], in assay [1], the “Bleaching effect on gradually added Acid Blue 45 (FIG. 1)” value was “enhanced”. For the same compound, the “Initial Bleaching of Direct Blue 1 with CiP” value is given as 239 -ΔmAbs/minute in assay [2] (pH 8.5, 0.08 mg/l CiP) and 1 -ΔmAbs/minute in assay [2] (pH 10.5, 0.16 mg/l CiP). The “DB1 bleaching in 4 minutes” value in assay [3] (pH 5.5, Trametes villosa laccase 1.6 mg/l) is on record as 447 -ΔmAbs/4 min; in assay [3] (pH 7.0, Trametes villosa laccase 16 mg/l), 242 -ΔmAbs/4 min. Besides, the figures for the “Initial bleaching rate of DB1” value in assay [4] (pH 5.5), in assay [4] (pH 7.0) and in assay [4] (pH 8.5) were 28 -ΔmAbs/minute, 94 -ΔmAbs/minute and 50 -ΔmAbs/minute, respectively.

For the origin of these results see patent US5912405A, “Enhancers such as acetosyringone” (Novo Nordisk A/S, priority 1994, dated 1999).
